Results on twelve compounds are retold here after PMC12693182, “Synthesis and QSAR Studies of Claramine Derivatives, a New Class of Broad-Spectrum Antimicrobial Agents” (Molecules, 2025).

The IC50 is the concentration needed to halve the response being measured. Higher therefore signals lower potency. For orientation: MIC means the lowest concentration that inhibits growth of the organism.

In brackets after ≈: the same amount, converted by molar mass.

Assay [1] deals with Chinese hamster Ovary cells (CHO-K1). Kind of assay: Cytotoxicity assay (WST-1 / Neutral Red). The assay is classed as cell-based. The following applies: 24-h incubation; for IC50: Cricetulus griseus, 24 h. On the procedure:
The cytotoxic activities of compounds were assessed on Chinese hamster Ovary cells (CHO-K1) provided from ATCC-LGC Standards Sarl (Molsheim, France). Cells were maintained in Mc Coy’s 5A (CHO) medium supplemented with 10% bovine calf serum, 2 mM glutamine, and 100 U mL^−1/10 µg mL^−1 penicillin/streptomycin mixtures. For the cytotoxicity experiments, they were seeded in 96-well plates and incubated at 37 °C in humidified atmosphere containing 5% CO2 overnight, then concentrations of compounds were incorporated in triplicate cultures. After a 24-h incubation period at 37 °C, cells were submitted to three successive washes in phosphate buffer saline (PBS) and cell viability was evaluated by two different vital dyes: • i. A first set of cell cultures was incubated in PBS containing 10% WST-1 for 30 min at 37 °C, 5% CO2. Cell viability was evaluated by the assessment of WST-1 absorbance at 450 nm in a microplate spectrophotometer. • ii. A second set of cell cultures was placed into Neutral Red medium (50 μg mL^−1 Neutral Red in complete medium) and incubated for 3 h at 37 °C, 5% CO2. Then the Neutral Red medium was removed and the distaining solution (50% ethanol, 1% acetic acid, 49% distilled water; 50 µL per well) was added into the wells. The plates were shaken for 15–20 min at room temperature in the dark. Cell viability was evaluated by the assessment of absorbance at 540 nm in a microplate spectrophotometer.
Results were expressed as percentages of cell viability about the control (culture medium-only), which corresponded to 100% cell viability. Dose-response curves were calculated by non-linear regression analysis with TableCurve 2D software (V 5.0.1) (Systat Software Inc., San Jose, CA, USA). The Inhibitory Concentration 50% (IC50) was defined as the concentration of compounds that induced a 50% decrease of viable cells.

The next assay deals with S. aureus 340. Kind of assay: MIC, broth microdilution. Type of assay: cell-based, Staphylococcus aureus. The following applies: Staphylococcus aureus, 340, 24 h. The procedure: (§1) Antimicrobial activity of the compounds was studied by determination of minimal inhibitory concentrations (MIC) according to the NCCLS guidelines M7-A2 using the microbroth dilution methods. The bacteria strains were grown on trypticase soy agar (Becton Dickinson) at 37 °C for 24 h. Inocula were prepared in TCE (tryptone 0.1%, […], wt/vol) by ajusting the turbidity at 623 nm to obtain 1–3 10^5 CFU/mL.
(§2) Antimicrobial activities of the compounds were determined by using a broth microdilution method performed in sterile 96-well microplates. All compounds were solubilized in water at a concentration of 10 mM and were transferred to each microplate well in order to obtain a two-fold serial dilution in 100 µL of broth and 100 µL of inoculum containing 2–6 10^5 CFU of each bacterium were added to each well. Some wells were reserved for positive controls and inoculum viability.
On the technique in general: Broth dilution looks for growth in wells or tubes with falling amounts of substance.

Another assay relates to P. aeruginosa 1051575. Kind of assay: MIC, broth microdilution. The following applies: Pseudomonas aeruginosa, 1051575, 24 h, 24 h. Type of assay: cell-based, Pseudomonas aeruginosa. On the procedure: as §1, §2
The subject of another assay is E. coli 1956. Kind of assay: MIC, broth microdilution. The assay is classed as cell-based, Escherichia coli. The following applies: Escherichia coli, 1956, 24 h. On the procedure:
as §1, §2

A further assay deals with E. coli ATCC 25922. Put plainly: MIC, broth microdilution. The assay is classed as cell-based, Escherichia coli. The following applies: Escherichia coli, ATCC25922, 24 h, ATCC strain. The procedure: as §1, §2
The next assay has as its system E. faecalis ATCC29212. Kind of assay: MIC, broth microdilution. The assay is classed as cell-based, Enterococccus faecalis. The following applies: Enterococcus faecalis, ATCC29212, 24 h, ATCC strain, read-out: MIC E. faecalis 29212. The procedure: as §1, §2
A further assay relates to S. intermedius 1051997. Put plainly: MIC, broth microdilution. Type of assay: cell-based, Staphylococcus intermedius. The following applies: Staphylococcus intermedius, 1051997, 24 h, 24 h. On the procedure:
as §1, §2

For the next assay, the system named is S. aureus ATCC 25923. Kind of assay: MIC, broth microdilution. The following applies: Staphylococcus aureus, ATCC25923, 24 h, ATCC strain. The assay is classed as cell-based, Staphylococcus aureus. On the procedure: as §1, §2
The test system of another assay is P. aeruginosa ATCC 27853. Put plainly: MIC, broth microdilution. The following applies: Pseudomonas aeruginosa, ATCC27853, 24 h, ATCC strain. Type of assay: cell-based, Pseudomonas aeruginosa. The procedure:
as §1, §2

As to `CC(C)OC(=O)CCC(C)C1CCC2C3CCC4CC(NCCCNCCCN)CCC4(C)C3CC(O)C12C` (stereo not shown) [Claramine A04], it took 57 µg/mL (≈ 104 µM) to reach half-maximal inhibition in assay [1] (IC50). For the same compound, the values for the minimal inhibitory concentration (MIC) with S. aureus 340 and in the assay on P. aeruginosa 1051575 were 3 µg/mL (≈ 5.48 µM) and 14 µg/mL (≈ 25.6 µM), respectively.

In assay [1], `CCOC(=O)CCC(C)C1CCC2C3CCC4CC(NCCCNCCCCNCCCN)CCC4(C)C3CC(O)C12C` (stereo not shown) [Claramine A20] had an IC50 of 25 µg/mL (≈ 41.3 µM).

In assay [1], `CCCCOC(=O)CCC(C)C1CCC2C3CCC4CC(NCCCNCCCCNCCCN)CCC4(C)C3CC(O)C12C` (stereo not shown) [Claramine A21] showed an IC50 of 4 µg/mL (≈ 6.32 µM).

For the compound `CC(CCC(=O)OC(C)(C)C)C1CCC2C3CCC4CC(NCCCNCCCCNCCCN)CCC4(C)C3CC(O)C12C` (stereo not shown) [Claramine A22], in assay [1], the “IC50 CHO” value was 38 µg/mL (≈ 60 µM) and the IC50 was more than 35 µg/mL. The same compound registered an MIC in the assay on S. aureus 340 of less than 4 µg/mL.

In [1], `CC(CCC(=O)OCC(F)(F)F)C1CCC2C3CCC4CC(NCCCNCCCCNCCCN)CCC4(C)C3CC(O)C12C` (stereo not shown) [Claramine A24] yielded an IC50 of 76 µg/mL (≈ 115 µM).

`CC(CCC(=O)OC(C(F)(F)F)C(F)(F)F)C1CCC2C3CCC4CC(NCCCNCCCCNCCCN)CCC4(C)C3CC(O)C12C` (stereo not shown) [Claramine A25] returned an IC50 in assay [1] of 4 µg/mL (≈ 5.5 µM).

Turning to `CC(C)OC(=O)CCC(C)C1CCC2C3CCC4CC(NCCCN5CCN(CCCN)CC5)CCC4(C)C3CC(O)C12C` (stereo not shown) [Claramine A26], in assay [1], the IC50 came to 160 µg/mL (≈ 259 µM). In addition, the MIC with S. aureus 340 and in the assay on P. aeruginosa 1051575 was 62 µg/mL (≈ 100 µM) each time.

In assay [1], `CC(C)OC(=O)CCC(C)C1CCC2C3CCC4CC(NCCN(CCN)CCN)CCC4(C)C3CC(O)C12C` (stereo not shown) [Claramine A29] yielded an IC50 of 141 µg/mL (≈ 250 µM). In addition, the MIC was 14 µg/mL (≈ 24.9 µM) in the assay with S. aureus 340 and 56 µg/mL (≈ 99.5 µM) with P. aeruginosa 1051575.

On to `COC(=O)CCC(C)C1CCC2C3C(O)CC4CC(NCCCNCCCN)CCC4(C)C3CC(O)C12C` (stereo not shown) [Claramine B02], for which the IC50 in [1] stood at 27 µg/mL (≈ 50.4 µM). Besides, the values for the MIC against S. aureus 340 and against P. aeruginosa 1051575 were 7 µg/mL (≈ 13.1 µM) and 13 µg/mL (≈ 24.3 µM), respectively.

Turning to `CC(C)OC(=O)CCC(C)C1CCC2C3C(O)CC4CC(NCCCNCCCCNCCCN)CCC4(C)C3CC(O)C12C` (stereo not shown) [Claramine B12], the minimal inhibitory concentration (MIC) came to 62 µg/mL (≈ 97.6 µM) in the assay with E. coli 1956; 4 µg/mL (≈ 6.3 µM) with E. coli ATCC 25922; 32 µg/mL (≈ 50.4 µM) in the assay with E. faecalis ATCC29212; 4 µg/mL (≈ 6.3 µM) in the assay on S. intermedius 1051997; 8 µg/mL (≈ 12.6 µM) with S. aureus ATCC 25923; 8 µg/mL (≈ 12.6 µM) with S. aureus 340. The figures for the MIC against P. aeruginosa ATCC 27853 and against P. aeruginosa 1051575 were 16 µg/mL (≈ 25.2 µM) and 8 µg/mL (≈ 12.6 µM), respectively. In [1], this compound returned an IC50 of 48 µg/mL (≈ 75.6 µM).

For `CC(C)OC(=O)CCC(C)C1CCC2C3C(O)CC4CC(NCCCNCCCCN)CCC4(C)C3CC(O)C12C` (stereo not shown) [Claramine B14], the MIC is 30 µg/mL (≈ 51.9 µM) in the assay with E. coli 1956; 4 µg/mL (≈ 6.92 µM) against E. coli ATCC 25922; 30 µg/mL (≈ 51.9 µM) with E. faecalis ATCC29212; 4 µg/mL (≈ 6.92 µM) in the assay on S. intermedius 1051997; 7 µg/mL (≈ 12.1 µM) in the assay on S. aureus ATCC 25923; 14 µg/mL (≈ 24.2 µM) in the assay on S. aureus 340. Moreover, the results for the MIC in the assay with P. aeruginosa ATCC 27853 and in the assay with P. aeruginosa 1051575 were 15 µg/mL (≈ 26 µM) and 7 µg/mL (≈ 12.1 µM), respectively. In addition, the IC50 in [1] is 67 µg/mL (≈ 116 µM).

`CC(C)OC(=O)CCC(C)C1CCC2C3C(O)CC4CC(NCCCNCCCN)CCC4(C)C3CC(O)C12C` (stereo not shown) [Claramine B15] displayed an IC50 in [1] of 113 µg/mL (≈ 200 µM). Besides, the figures for the MIC with S. aureus 340 and against P. aeruginosa 1051575 were 14 µg/mL (≈ 24.8 µM) and 28 µg/mL (≈ 49.7 µM), respectively.
